The values below come from US20070004639A1, “Methods and compositions for treating Parkinson's disease” (BodyBio, Inc., priority 2005, published 2007).

Data set [1] relates to Parkinson's Disease. Kind of data set: Parkinson's patients case studies (oral nutrients plus IV infusions).
Data set [2] has as its system Parkinson's Disease. The settings on record: 800 mild, early Parkinson's Disease patients; cited from earlier work.
Data set [3] has as its system Parkinson's Disease. Particulars: in vivo; cited from earlier work.
The subject of data set [4] is Parkinson's Disease. Particulars: cited from earlier work.
Data set [5] has as its system Parkinson's Disease. The settings on record: after five years; cited from earlier work.
The test system of data set [6] is mouse model of Bulbar ALS. The settings on record: oral administration; cited from earlier work.
The subject of data set [7] is Parkinson's Disease. The settings on record: human, in vivo; cited from earlier work.
For data set [8] the following is noted: cited from earlier work.
The subject of data set [9] is Parkinson's Disease. The settings on record: in vivo; cited from earlier work. This is another data set of the same source.
The conditions of data set [10]: in vivo; cited from earlier work.

Like-named read-outs stand apart in the source and are kept apart here.

For `N[C@@H](CCC(=O)N[C@@H](CS)C(=O)NCC(=O)O)C(=O)O` [Glutathione, N—(N-L-gamma-glutamyl-L-cysteinyl)glycine], in the data set on Parkinson's Disease [1] (Case Study 1, IV Glutathione push once weekly, after 6 months), the tremor result is on record as “slightly improved”. As for `C#CCN(C)[C@H](C)Cc1ccccc1` [Selegiline], in the data set on Parkinson's Disease [2], the “delay of the progression of motor symptoms” value is reported as “about nine”. Regarding `N[C@@H](Cc1ccc(O)c(O)c1)C(=O)O` [levodopa, Levodopa], in the data set with Parkinson's Disease [1] (Case Study 6, before protocol), the “tolerance of drug by patient” value is “intolerant”.

`CCCN[C@H]1CCc2nc(N)sc2C1` [pramipexole]: in the data set on Parkinson's Disease [3], the “patients completely free from motor complications” value is listed as 72%, the “patients in whom dyskinesias developed” value was 10% and the “patients who developed motor complications” value was 28%. Regarding `CCCN(CCC)CCc1cccc2c1CC(=O)N2` [ropinerole], in the data set with Parkinson's Disease [4] (early stage Parkinson's Disease, versus levodopa), the effectiveness in comparison entry is given as “as effective as levodopa”. In addition, the effectiveness in comparison entry in the data set with Parkinson's Disease [4] (versus bromocriptine (Parlodel)) is on record as “more effective than bromocriptine”. In the data set on Parkinson's Disease [5], the “patients who developed dyskinesia” value is reported as 20% and the “severe form among those who developed dyskinesia” value is 8%. For `CCCC(=O)[O-].[Na+]` [sodium butyrate], the neurological phenotypes entry in [6] is reported as “successfully ameliorated”. `Cc1ccc(C(=O)c2cc(O)c(O)c([N+](=O)[O-])c2)cc1` [tolcapone]: in the data set on Parkinson's Disease [7], the “deaths from liver failure” value was “three”. For Phosphatidylcholine [PC], the oral absorption entry in data set [8] (taken orally with meals) is recorded as “up to 90 % per 24 hrs”. Further, in data set [8] (taken orally), the “time over which blood levels peak” value is 8 to 12 h. For the compound botulinum toxin, the effect on tremors entry in the data set on Parkinson's Disease [9] is “without any substantial reduction in tremors”. Regarding carbidopa/levodopa, in [10], the “half-life compared with dopamine agonists” value was “shorter half-life”.
